Assay results published in ChEMBL document CHEMBL1124722, “Synthesis and anticonvulsant activity of 2-benzylglutarimides” (J Med Chem, 1990).
The source made the active and inactive calls. The calls are words filed in the database; no cut-off is given here.

Tests used:
[1] = Protective index was calculated (TD50/ED50) in MES assay in mice after oral administration; format: functional
[2] = organism: Mus musculus; experiment: Time of peak effect toxicity against maximal electroshock induced seizures; format: organism-based; details: in vivo
[3] = test system: Mus musculus; experiment: Anticonvulsant activity against subcutaneous administered Metrazol induced seizures (scMET) after 4 hr at 300 mg/kg; Active; format: functional, organism-based; set-up: dose 300 mg/kg
[4] = Protective index was calculated (TD50/ED50) in scMET assay in rat after oral administration; format: functional
[5] = test system: Mus musculus; experiment: Anticonvulsant activity against subcutaneous administered Metrazol induced seizures (scMET) after 0.5 hr at 30 mg/kg; Active; format: functional, organism-based; set-up: dose 30 mg/kg
[6] = test system: Mus musculus; experiment: The compound was tested for anticonvulsant activity against (subcutaneous administered) strychnine induced seizures after intraperitoneal administration; format: functional
[7] = Ratio of LD50/HD50 was determined; format: functional
[8] = test system: Mus musculus; experiment: Anticonvulsant activity against subcutaneous picrotoxin induced seizures after intraperitoneal administration; format: functional
[9] = test system: Mus musculus; experiment: The effective dose of compound (given orally) was tested against subcutaneous administered Metrazol induced seizures in mice; format: functional
[10] = Protective index was calculated (TD50/ED50) in scMET assay in mice after oral administration; format: functional
[11] = test system: Mus musculus; experiment: The effective dose of compound was tested against maximal electroshock induced seizures after intraperitoneal administration; format: functional; details: ip
[12] = organism: Mus musculus; experiment: Time of peak effect activity against maximal electroshock induced seizures; format: functional
[13] = test system: Mus musculus; experiment: Anticonvulsant activity against maximal electroshock induced seizures (MES) after 4 hr at 300 mg/kg; Active; format: functional, organism-based; set-up: dose 300 mg/kg
[14] = test system: Mus musculus; experiment: The Neurologic toxicity by measuring rotarod test after 4 hr; No toxicity up to 300 mg/kg; format: organism-based; set-up: dose 300 mg/kg; details: in vivo
[15] = Protective index was calculated (TD50/ED50) in MES assay in mice after intraperitoneal administration; format: functional
[16] = test system: Mus musculus; experiment: The effective dose of compound was tested against maximal electroshock induced seizures after oral administration in mice; format: functional
[17] = test system: Mus musculus; experiment: Anticonvulsant activity against maximal electroshock induced seizures (MES) after 0.5 hr at 300 mg/kg; Active; format: functional, organism-based; set-up: dose 300 mg/kg
[18] = test system: Mus musculus; experiment: The effective dose of compound was tested against subcutaneous administered Metrazol induced seizures after intraperitoneal administration.; format: functional
[19] = organism: Mus musculus; experiment: Median hypnotic dose by loss of righting reflex; format: functional
[20] = organism: Mus musculus; experiment: Median lethal dose was measured after 24 hr; format: functional
[21] = test system: Rattus norvegicus; experiment: The effective dose of compound was tested against maximal electroshock induced seizures after oral administration in rat; format: functional
[22] = test system: Mus musculus; experiment: The compound was tested for anticonvulsant activity against (subcutaneous administered) bicuculline induced seizures after intraperitoneal administration; format: functional
[23] = test system: Mus musculus; experiment: The compound was tested for anticonvulsant activity against (subcutaneous administered) Metrazol induced seizures after intraperitoneal administration; format: functional
[24] = Protective index was calculated (TD50/ED50) in MES assay in rat after oral administration; format: functional
[25] = The cytotoxicity (given orally) […] in mice; format: organism-based; details: mouse, in vivo
[26] = The cytotoxicity after intraperitoneal administration; format: organism-based; details: mouse, in vivo, ip
[27] = test system: Mus musculus; experiment: The Neurologic toxicity by measuring rotarod test after 0.5 h; No toxicity up to 300 mg/kg; format: organism-based; set-up: dose 300 mg/kg; details: in vivo
[28] = test system: Rattus norvegicus; experiment: The effective dose of compound (given orally) was tested against subcutaneous administered Metrazol induced seizures in rat; format: functional
[29] = Protective index was calculated (TD50/ED50) in scMET assay in mice after intraperitoneal administration; format: functional
[30] = The cytotoxicity (given orally) […] in rat; format: organism-based; details: in vivo
[31] = test system: Mus musculus; experiment: The compound was tested for anticonvulsant activity against (subcutaneous administered) bicuculline induced seizures after intraperitoneal administration; Protected at 100 mg/ kg; format: functional, organism-based; set-up: dose 100 mg/ kg
[32] = in vivo; details: rat, ip
[33] = test system: Rattus norvegicus; experiment: The effective dose of compound was tested against subcutaneous administered Metrazol induced seizures in rat; Not effective; format: functional, organism-based
[34] = test system: Mus musculus; experiment: The compound was tested for anticonvulsant activity against (subcutaneous administered) Metrazol induced seizures after intraperitoneal administration; No protection up to 100 mg/kg; format: functional, organism-based; set-up: dose 100 mg/kg
[35] = test system: Mus musculus; experiment: The effective dose of compound was tested against subcutaneous administered Metrazol induced seizures after intraperitoneal administration; Not effective; format: functional, organism-based
[36] = organism: Mus musculus; experiment: Median hypnotic dose by loss of righting reflex.; format: functional
[37] = test system: Rattus norvegicus; experiment: The cytotoxicity after intraperitoneal administration in rat.; format: functional; details: ip
[38] = organism: Mus musculus; experiment: Time of peak effect was determined for toxicity; format: functional
[39] = organism: Mus musculus; experiment: Time of peak effect was determined for activity in MES; format: functional; set-up: unit not given here
[40] = Median lethal dose was measured after 24 hr.; format: organism-based; details: mouse, in vivo
[41] = test system: Mus musculus; experiment: The effective dose of compound was tested against maximal electroshock induced seizures after intraperitoneal administration; Not active up to 300 mg/kg; format: functional, organism-based; set-up: dose 300 mg/kg
[42] = Protective index was calculated (TD50/ED50) in scMet assay in mice after intraperitoneal administration; format: functional
[43] = test system: Mus musculus; experiment: Anticonvulsant activity against subcutaneous administered Metrazol induced seizures (scMET) after 0.5 hr at 300 mg/kg; Active; format: functional, organism-based; set-up: dose 300 mg/kg
[44] = test system: Mus musculus; experiment: Anticonvulsant activity against maximal electroshock induced seizures (MES) after 0.5 h; Not active up to 300 mg/kg; format: functional, organism-based; set-up: dose 300 mg/kg
[45] = test system: Mus musculus; experiment: The effective dose of compound was tested against subcutaneous administered Metrazol induced seizures after intraperitoneal administration; format: functional
[46] = test system: Mus musculus; experiment: Anticonvulsant activity against maximal electroshock induced seizures after 4 hr; Not active up to 300 mg/kg.; format: functional, organism-based; set-up: dose 300 mg/kg
[47] = test system: Mus musculus; experiment: The Neurologic toxicity by measuring rotarod after 4 hr; No toxicity up to 300 mg/kg; format: organism-based; set-up: dose 300 mg/kg; details: in vivo
[48] = test system: Mus musculus; experiment: Anticonvulsant activity against subcutaneous administered Metrazol induced seizures (scMET) after 0.5 hr; Not active up to 300 mg/kg; format: functional, organism-based; set-up: dose 300 mg/kg

Q: What does the source list for O=C1CCC(Cc2ccc(Cl)cc2)C(=O)N1 (centres undefined)?
A: Ratio [1]: >5.18; TPE [2]: 1; Activity [3]: Active; Ratio [4]: 1.87; Activity [5]: Active; ED50 [6]: 232 mg/kg; Ratio [7]: > 1.87; ED50 [8]: 158 mg/kg; ED50 [9]: 274 mg/kg; Ratio [10]: >10.95; ED50 [11]: 137 mg/kg; TPE [12]: 0.5; Activity [13]: Active; Toxicity [14]: No toxicity up to 300 mg/kg; Ratio [15]: 8.95; ED50 [16]: 579 mg/kg; Activity [17]: Active; ED50 [18]: 72.8 mg/kg; HD50 [19]: 1282.47 mg/kg; LD50 [20]: > 2400 mg/kg; ED50 [21]: 58.3 mg/kg; ED50 [22]: 249 mg/kg; ED50 [23]: 72.8 mg/kg; Ratio [24]: 1.17; TD50 [25]: > 3000 mg/kg; TD50 [26]: 1220 mg/kg; Toxicity [27]: No toxicity up to 300 mg/kg; ED50 [28]: 36.4 mg/kg; Ratio [29]: 16.82; TD50 [30]: 68.2 mg/kg

Q: What does the source list for NC(=O)N1c2ccccc2C=Cc2ccccc21 [CARBAMAZEPINE]?
A: TPE [2]: 0.25; TPE [12]: 0.25; ED50 [31]: Active; TD50 [32]: 813 mg/kg; HD50 [19]: 172.24 mg/kg; LD50 [20]: 629 mg/kg; ED50 [21]: 8.5 mg/kg; ED50 [33]: inactive; ED50 [34]: inactive; ED50 [35]: inactive

Q: What does the source list for CCC1(c2ccccc2)C(=O)NC(=O)NC1=O [PHENOBARBITAL]?
A: Time of peak effect [2]: 0.5 h; Activity [12]: 1 h; HD50 [36]: 135.45 mg/kg; ED50 [37]: 61.1 mg/kg; TPE [38]: 0.5; TPE [39]: 1; LD50 at 24 h [40]: 265 mg/kg

Q: What does the source list for O=C1CCC(Cc2ccc(I)cc2)C(=O)N1 (centres undefined)?
A: ED50 [41]: Not active up to 300 mg/kg; Activity [3]: Active; Ratio [42]: >12.04; Toxicity [14]: No toxicity up to 300 mg/kg; Activity [43]: Active; Activity [44]: inactive; ED50 [45]: 87.2 mg/kg; TPE [39]: 1; Activity [46]: inactive; TD50 [26]: > 1050 mg/kg; Toxicity [27]: No toxicity up to 300 mg/kg

Q: For COc1ccc(CC2CCC(=O)NC2=O)cc1 (centres undefined), which Activity [3] is on record?
A: Active

Q: What about the Activity [44] of the same molecule?
A: inactive

Q: What about the Toxicity [47] of the same molecule?
A: No toxicity up to 300 mg/kg

Q: What about the Activity [48] of the same molecule?
A: inactive

Q: And the Activity [46]?
A: inactive

Q: And the Toxicity [27]?
A: No toxicity up to 300 mg/kg
